Measurements from publication PMC10779222, “Copper(II) Complexes with 1-(Isoquinolin-3-yl)heteroalkyl-2-ones: Synthesis, Structure and Evaluation of Anticancer, Antimicrobial and Antioxidant Potential” (International Journal of Molecular Sciences, 2023).

Columns and labels:
[1] = tested on: LS-180 (colon cancer); experiment: MTT cytotoxicity assay on LS-180 cells; assay type: cell-based, human; conditions: 24 h incubation
Description: (§1) Cytotoxic activity of the investigated compounds was evaluated against T98G (glioblastoma), HepG2 (hepatoma), LS-180 (colon cancer) and A375 (melanoma) cell lines. Human normal skin fibroblasts, CCD-1059Sk (CRL-2072), were used as reference (non-cancerous) cells. All of the cell lines were obtained from American Type Culture Collection (ATCC; Manassas, VA, USA). A375, T98G and CCD-1059Sk cells were cultured in Dulbecco’s Modified Eagle’s Medium (DMEM) (Sigma Aldrich, St. Louis, MO, USA) supplemented with 10% FBS, penicillin (100 U/mL) and streptomycin (100 μg/mL). LS-180 and HepG2 cells were cultured in Eagle’s Minimum Essential Medium supplemented with 10% FBS, penicillin (100 U/mL) and streptomycin (100 μg/mL). All of the cells were maintained at 37 °C in a humidified atmosphere of 5% CO2. The compounds were dissolved in DMSO in order to obtain stock solutions. At the day of the experiment, the suspension of cells (1 × 10^5 cells/mL) was distributed onto 96-well plates at a volume of 100 μL/well. After attachment, the cells were treated with the increased concentrations of the tested compounds in medium containing 2% FBS and incubated for 24 h. Then, the medium was removed from wells, and cells were rinsed with PBS. Afterwards, 15 μL of MTT working solution (5 mg/mL in PBS) was added to each well, and the plates were incubated for 3 h. Subsequently, 100 μL of 10% SDS solution was added to each well in order to dissolve the precipitated formazan crystals. After overnight incubation at 37 °C, the absorbance of the obtained solution was measured at λ = 570 nm using a microplate reader (Epoch, BioTek Instruments, Inc., Winooski, VT, USA). At least two independent experiments were performed in triplicate. […] IC50 values of the investigated derivatives and positive control (etoposide) were calculated using the IC50 online calculator [101].

[2] = tested on: HepG2 (hepatoma); experiment: MTT cytotoxicity assay on HepG2 cells; assay type: cell-based, human
Description: as §1

[3] = tested on: HepG2 cells; experiment: Cell cycle analysis (image cytometry, DAPI) in HepG2; assay type: cell-based, human; conditions: C2 at IC50 concentration
Description: Cell cycle analysis of T98G and HepG2 cells pretreated with copper(II) complex C2 (CX) (at IC50 concentration) was performed on NucleoCounter NC-3000 Image Cytometer (ChemoMetec, Lillerod, Denmark). The investigated cells were seeded on 6-well culture plates (Corning Inc., New York, NY, USA) at the density of 1 × 10^5 cells/mL and cultured in the respective medium at 37 °C in a humidified atmosphere of 5% CO2. When the cells reached approximately 80% confluence, they were treated with C2 (CX), at a concentration of IC50, for 24 h. Subsequently, the cells were detached with trypsine, suspended in 250 μL of lysis buffer (Solution 10) supplemented with DAPI (10 μg/mL) and incubated for 5 min at 37 °C. Following this, stabilization buffer (Solution 11) was added, and the obtained cell suspension was applied on NC-slide and analyzed using NucleoCounter NC-3000 Image Cytometer equipped with NucleoView NC-3000^TM software (ChemoMetec A/S, Lillerod, Denmark). Experiments were repeated three times, and the measurements in each experiment were run in duplicate.

[4] = tested on: A375 (melanoma); experiment: MTT cytotoxicity assay on A375 cells; assay type: cell-based, human; conditions: 24 h incubation
Description: as §1

[5] = tested on: Candida albicans ATCC 102231; experiment: Two-fold microdilution broth method, MIC; assay type: cell-based; conditions: 35 °C, 24 h
Source text: (§2) Antibacterial and antifungal activities of the free ligands L2, L3 and L4 and the corresponding copper(II) complexes C2, C3 and C4 were screened using the two-fold microdilution broth method. Minimal inhibitory concentrations (MICs) of tested compounds for the panel of reference Gram-positive bacteria, including Staphylococcus aureus ATCC 25923, Staphylococcus aureus ATCC BAA-1707, Staphylococcus epidermidis ATCC 12228, Micrococcus luteus ATCC 10240 and Bacillus cereus ATCC 10876; Gram-negative bacteria, including Salmonella Typhimurium ATCC 14028, Escherichia coli ATCC 25922, Proteus mirabilis ATCC 12453, Klebsiella pneumoniae ATCC 13883 and Pseudomonas aeruginosa ATCC 9027; and yeasts, including Candida albicans ATCC 102231, Candida parapsilosis ATCC 22019 and Candida glabrata ATCC 90030 were determined. The procedure has been described in detail before. Briefly, the solutions of tested compounds dissolved in dimethylosulfoxide (DMSO) were suspended in Mueller–Hinton broth for bacteria or Mueller–Hinton broth with 2% glucose for fungi. Then, the series of two-fold dilutions were carried out in the sterile Nunc™ MicroWell™ 96-Well Microplates (ThermoFisher Scientific Inc.), obtaining concentrations from 1000 to 7.8 mg/L in the appropriate medium. Simultaneously, the inocula of 24 h cultures of microorganisms in sterile physiological saline (0.5 McFarland standard density) were prepared and added to each well, obtaining final density of 5 × 10^5 CFU/mL for bacteria and 5 × 10^4 CFU/mL for yeasts. Proper positive (inoculum without tested compound) and negative (compound without inoculum) controls were added in each microplate. After incubation (35 °C, 24 h), the growth of microorganisms was measured spectrophotometrically at 600 nm (BioTEK ELx808, Bio-Tek Instruments, Inc., Winooski, VT, USA). MICs were marked at the lowest concentration of the compound without the growth of bacteria or fungi.

[6] = tested on: Candida parapsilosis ATCC 22019; experiment: Two-fold microdilution broth method, MIC; assay type: cell-based; conditions: 35 °C, 24 h
Source text: as §2

[7] = tested on: Candida glabrata ATCC 90030; experiment: Two-fold microdilution broth method, MIC; assay type: cell-based; conditions: 35 °C, 24 h
Source text: as §2

O=C1NCCN1c1cc2ccccc2cn1.O=C1NCCN1c1cc2ccccc2cn1.[Cl][Cu][Cl] [C2, Dichloro{bis[1-(Isoquinolin-3-yl)imidazolidin-2-one]}copper(II)]
IC50 ± SD, LS180 [1]: 5.88 ± 0.40 µg/mL
selectivity index (SI), HepG2 ([2]; HepG2 compared with CCD-1059-Sk): 4.33
highest concentration that did not affect the viability of HepG2 cells ([2]; MTT assay): 0.25 µg/mL
IC50 ± SD, HepG2 ([2]; MTT, 24 h incubation): 5.04 ± 0.42 µg/mL
effect on cell cycle progression, HepG2 ([3]; 24 h): cell cycle arrest in the sub-G1 phase
DNA content in the sub-G1 phase ([3]; HepG2, 24 h, control cells 10%, p < 0.0001): 29%
IC50 ± SD, A375 [4]: 28.91 ± 1.79 µg/mL
MIC, C. albicans ATCC 102231 [5]: 1000 mg/L
MIC, C. parapsilosis ATCC 22019 [6]: 1000 mg/L
MIC, C. glabrata ATCC 90030 [7]: >1000 mg/L
